Series [1] has as its system mammary gland tumors of MMTV-Neu mice. The series is described as follows: MMTV-Neu mouse model of HER2 positive breast cancer, rexinoid in diet.
Method: Tumors or mammary glands were homogenized in EBC buffer (1M Tris pH 8, 5M NaCl) with the same protease inhibitors and 10% NP-40 and incubated on ice for 30 min. Protein concentrations were determined by the BCA assay (Sigma-Aldrich). Proteins were resolved by SDS-PAGE, transferred to a nitrocellulose membrane and analyzed with the following antibodies: vinculin, p-STAT1, p-STAT3, p-STAT5 and mouse and rabbit secondary antibodies (Cell Signaling); PD-1, CD206 (Abcam); PD-L1 (R&D). ImageJ was used to quantify the immunoblots, and results were plotted and statistically analyzed using Prism 6. All images shown are representative of 3 independent experiments.
One third of the tumor, mammary gland and spleen removed from MMTV-neu or MMTV-PyMT mice were minced separately and incubated in digestion media consisting of collagenase (300 U/ml, Sigma), dispase (1 U/ml, Worthington), and DNAse (2 U/ml, Calbiochem) for 30 minutes at 37° C. with stirring. Cells were then passed through a 40 μm cell strainer (BD Falcon), and red blood cells eliminated with lysis solution. […] Propidium iodide staining was used to exclude dead cells.
One third of the tumor, spleen and one mammary was removed from MMTV-neu and PyMT mice and fixed in 10% phosphate-buffered formalin for 48 hours, embedded in paraffin blocks, and sectioned (5-6 μm). Hydrogen peroxide was used to quench endogenous peroxidase activity. Sections were immunostained with antibodies raised against CD206 (1:200, Abcam), Gr1 (1:40, BM8, R&D), CD8 (1:40, Biolegend), FOXP3 (1:50, EBiosciences), PD-1 (1:100, Abcam), PD-L1 (1:50, Abcam), cleaved caspase 3 (Cell Signaling) and visualized with biotinylated anti-rabbit or anti-rat secondary antibodies (Cell Signaling or Vector Labs). Signal was detected using a DAB substrate (Cell Signaling) following the manufacturer's recommendations. Sections were counterstained with hematoxylin (Vector Labs).
Both rexinoid treatments were 100 mg/kg of diet, which is equivalent to 25 mg/kg of body weight (FIG. 1B).
The next series concerns PD-L1. The series is described as follows: PD-L1 induction in macrophages or RAW264.7 cells with cancer cell conditioned media (flow cytometry). The series is classed as cell-based, mouse. Conditions: for PD-L1 Levels: Table 4, Control 43.3.
A short description of series [2]: Toxicity in A/J mice with lung tumors fed rexinoids plus carboplatin and paclitaxel. It is filed as in vivo. Particulars: 100 mg/kg diet, 7 weeks. On the procedure:
A/J mice with lung tumors (detected by ultrasound) were fed rexinoids in their diets (at 100 mg/kg diet) and injected twice every other week with carboplatin and paclitaxel.

In series [3] the test system is inducible nitric oxide synthase (iNOS). The series is described as follows: iNOS suppression / NO assay in LPS-stimulated macrophages or RAW264.7 cells (Griess reaction). The series is classed as cell-based, mouse. Particulars: at 100 nM; comparators of Table 3. The method, boiled down:
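RAW264.7 cells or macrophages incubated with rexinoids (300 nM, or 100 nM/300 nM, or a concentration series) and stimulated with 1–2 ng/ml LPS for 24 h. Nitric oxide released into medium measured by Griess reaction; values given as percent of LPS-stimulated control, % inhibition, or IC50.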
A general note: The Griess reaction detects nitrite, a stable product of nitric oxide.

Setting [4] is: 100 mg/kg diet, LG268 5 days, bexarotene 10 days, western blot.

This is an account of results in patent US20220089540A1 (Board of Trustees of Michigan State University, priority 2019, published 2022).

Take `Cc1cc2c(cc1C1(c3ccc(C(=O)O)cn3)CC1)C(C)(C)CCC2(C)C` [LG268]: in series [1] (100 mg/kg diet, 5 days), the “PD-1 expression in tumors vs control” value is “lower”. Besides, the “PD-L1 expression in tumors vs control” value in series [1] (100 mg/kg diet, LG268 5 days, CW-V-125 10 days, western blot and/or immunohistochemistry) was “significantly higher”. In addition, the “myeloid derived suppressor cells (CD45+, CD11b+, Gr1+) in tumors” value in series [1] (100 mg/kg diet, LG268 5 days, bexarotene 10 days, control 1.9%) is on record as 0.8 % of CD45+ immune cells. Moreover, the “mammary tumor size (tumor weight as percentage of total body weight)” value in series [1] (100 mg/kg diet, LG268 5 days, bexarotene 10 days, control diet 3.2%) is 1.1 % of total body weight. Besides, the “cleaved caspase 3 in tumors” value in series [1] (100 mg/kg diet, LG268 5 days, bexarotene 10 days, immunohistochemistry) is “increase”. For the same molecule, the “reduction of CD206 expression in tumor lysates” value in series [1] (setting [4]) is listed as 65%. Also, in series [1] (setting [4]), the “reduction of p-STAT1 expression in whole tumor lysates” value was found to be 80%. The “activated CD4 T cells (CD45+, CD3+, CD4+, CD25+) in tumors” value in series [1] (100 mg/kg diet, control 27.5%) was 13.0%. Further, the “expression of p-STAT3 or p-STAT5 in tumor lysates” value in series [1] (100 mg/kg diet, western blot) is reported as “no changes”. Also, the “caliber of the vessels in the tumors” value in series [1] (CD31 immunohistochemistry) is listed as “reduced”. Besides, the “FOXP3 expression in tumors” value in series [1] (immunohistochemistry) is “decreased”. In addition, in series [1] (mouse, in vivo), the “time to complete regression of the tumors” value is given as “less than 10 days”. The “PD-L1 Levels” value with PD-L1 (100 nM) turned out to be 66.7; in the series with PD-L1 (1000 nM), 77. In addition, the “PD-L1 levels in RAW 264.7 cells with E18-14C-27C conditioned media” value with PD-L1 (24 hours) is “increased levels”. The “toxicity findings (liver, triglycerides, cholesterol, fur)” value in series [2] was “hepatomegaly, with elevated triglycerides and cholesterol”. For the same molecule, the iNOS in series [3] was 15-30% at 100 nM.
